# Data taken from patent US9000045B2, “CETP activity inhibitors” (Japan Tobacco Inc., priority 1997, dated 2015).
# Assays:
# CETP [1] = target: T1, CETP (Homo sapiens, UniProt P11597); test: Ex vivo CETP activity inhibitory effect of plasma from transgenic mice; parameters: from tissue; host or cells: plasma of transgenic mice carrying the human CETP gene; details: mouse, po, p.o., 6 hours after administration, transgenic mice with human CETP gene, read-out: CETP activity inhibitory rate in plasma from transgenic mouse
# T1 sequence (P11597 18-493): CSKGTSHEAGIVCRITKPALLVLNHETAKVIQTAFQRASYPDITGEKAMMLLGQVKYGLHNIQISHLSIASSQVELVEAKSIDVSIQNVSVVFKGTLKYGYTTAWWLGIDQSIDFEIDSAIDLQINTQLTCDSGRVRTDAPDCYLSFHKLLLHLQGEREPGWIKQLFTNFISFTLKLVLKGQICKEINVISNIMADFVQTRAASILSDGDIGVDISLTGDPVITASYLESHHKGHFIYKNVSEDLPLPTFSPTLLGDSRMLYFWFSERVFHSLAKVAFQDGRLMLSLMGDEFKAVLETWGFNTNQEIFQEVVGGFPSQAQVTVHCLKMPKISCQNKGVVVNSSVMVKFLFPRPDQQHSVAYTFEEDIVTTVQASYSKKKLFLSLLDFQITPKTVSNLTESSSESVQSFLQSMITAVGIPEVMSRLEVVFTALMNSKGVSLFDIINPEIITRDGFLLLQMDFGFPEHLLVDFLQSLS
# Method: Potassium bromide (KBr) was added to the plasma of healthy subjects (40 ml) to adjust specific gravity to d=1.125 g/ml. Density gradient centrifugation (227,000×g, 4° C., 17 hours) was conducted to obtain a fraction with specific gravity d>1.125 g/ml (HDL3 fraction). The fraction thus obtained was dialyzed against a PBS solution [10 mM Na2HPO4/10 mM NaH2PO4/0.15 M NaCl/1 mM EDTA (pH 7.4)]. Then, tritium-labeled cholesterol (10 nM) (50.3 Ci/mM) was dissolved in 95% ethanol and added gradually to the above HDL3 fraction under stirring. The solution was incubated for 18 hours at 37° C. [Tritium-labeled cholesterol was esterified by this procedure by the action of lecithin:cholesterol acyltransferase (LCAT) present on the surface of HDL3 and taken up into the interior of HDL3 as tritium-labeled cholesterylester ([^3H]CE)]. After incubation, KBr was added and specific gravity was adjusted to d=1.21 g/ml. Density gradient centrifugation (227,000×g, 4° C., 17 hours) was conducted and the fraction with d<1.21 g/ml was harvested. The fraction thus obtained was dialyzed against the above PBS solution to obtain HDL3 that took up [^3H]CE ([^3H]CE-HDL3, specific gravity: 1.125<d<1.21, specific activity: 101,000 dpm/nM), which served as donor lipoprotein.
# Physiological saline (specific gravity d=1.006 g/ml) was layered upon the plasma of healthy subjects (100 ml). Density gradient centrifugation (227,000×g, 4° C., 4 hours) was conducted and the fraction with specific gravity d>1.006 g/ml was harvested. KBr was added to the fraction thus obtained to adjust specific gravity to d=1.063 g/ml and density gradient centrifugation (227,000×g, 4° C., 20 hours) was conducted to harvest the fraction with specific gravity […]. The thus-obtained fraction was dialyzed against the above PBS solution to obtain fractions containing IDL and LDL (specific gravity: 1.006<d<1.063), which served as acceptor lipoprotein.
# Samples were suspended in a 0.5% methylcellulose solution and administered orally using a plastic probe to transgenic mice having introduced human CETP gene (hereafter referred to as mice; prepared using the method described in Japanese Patent Application No. Hei 8-130660), which had been fasted overnight. Blood was collected before administration, and 6 hours after administration CETP activity in the plasma was determined using the following method.
# Donor lipoprotein ([^3H]CE-HDL3, containing 0.21 μg cholesterol) obtained in the above (1), acceptor lipoprotein obtained in the above (2) (containing 21 μg of cholesterol), and 0.9 μl of mice plasma were added to microtubes. A total volume was adjusted to 600 μl/tube with a TBS solution [10 mM Tris/0.15 M NaCl (pH 7.4)]. The microtubes were incubated for 15 hours at 37° C. or 4° C. Then, an ice-cooled TBS solution (400 μl/tube) and a 0.3% dextran sulfate solution (100 μl/tube) containing 0.15 M magnesium chloride were added to the microtubes and mixed well. After allowing the microtubes to stand for 30 minutes at 4° C., centrifugation (8,000 rpm, 4° C., 10 minutes) was carried out and radioactivity of the resulting supernatant (HDL fraction) was determined with a scintillation counter.
# CETP [2] = target: T1, CETP; test: In vitro CETP activity inhibitory effect in whole plasma; type: biochemical; parameters: Plasma containing [^3H]CE-HDL3 (600,000 dpm/ml) was prepared by adding donor lipoprotein obtained in the above (1) to plasma from healthy subjects; from tissue; host or cells: whole plasma of healthy subjects; details: plasma from healthy subjects containing [3H]CE-HDL3, incubated 4 hours at 37° C.; read-out: CETP activity inhibition in whole plasma IC50
# In short: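 HDL3 was labelled with tritiated cholesterol (10 nM) for 18 h at 37° C in PBS with EDTA (pH 7.4). Test samples were in 1:1 N-methylpyrrolidone/PEG 400 and assayed in whole plasma. IC50 was calculated from % inhibition of CETP activity.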
inhibition at 30 mg/kg (CETP [1]),IC50 (CETP [2]),inhibition at 10 mg/kg (CETP [1]),inhibition at 100 mg/kg (CETP [1]),SMILES
29%,29 µM,,,Cc1ccc(NC(=O)C2(CCC(C)C)CCCCC2)c(S)c1 [Example 24]
40%,68 µM,19%,,CC(=O)OC(C)(C)C(=O)Sc1ccccc1NC(=O)C1(CCC(C)C)CCCCC1 [Example 25-52]
41%,11 µM,17%,,CC(C)CCC1(C(=O)Nc2ccccc2SC(=O)COc2ccccc2)CCCCC1 [Example 39]
,7 µM,,8%,CC(C)CCC1(C(=O)Nc2cc(Cl)c(Cl)cc2SC(=O)NC(C)(C)C)CCCC1 [Example 25-108]
38%,4 µM,,,CCC(CC)CC1(C(=O)Nc2ccccc2SC(=O)C(C)(C)O)CCCCC1 [Example 62]
45%,5 µM,27%,57%,"CC(C)CCC1(C(=O)Nc2ccccc2S)CCCCC1 [Example 11, N-(2-mercaptophenyl)-1-isopentylcyclohexanecarboxamide]"
,3 µM,,25%,CC(C)CCC1(C(=O)Nc2ccccc2SSc2ccccc2NC(=O)C2(CCC(C)C)CCCCC2)CCCCC1 [Example 8]
16%,21 µM,,,CC(C)CCC1(C(=O)Nc2ccccc2SC(=O)c2ccccc2Cl)CCCCC1 [Example 25-49]
